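Values below derive from 48-hour exposures of cells grown in 96-well plates, with endpoints linearly interpolated between the two concentrations bracketing the appropriate inhibition level. At the TGI there is no net growth.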

Our source for the TGI values is PubChem BioAssay (NCI).

Among the test systems are HCT-116 colon; OVCAR-8 ovarian; K-562 leukemia; MALME-3M melanoma; HCC-2998 colon; HT29 colon; UACC-62 melanoma; SK-MEL-5 melanoma; MCF7 breast.
Common to all, as to experiment: NCI tumour cell line growth inhibition, 48 h

In the case of `C=CCCC(C)N(C(=O)OC(C)(C)C)S(=O)(=O)c1ccc(C)cc1` (stereo unspecified), the TGI in the test with HCT-116 colon, with OVCAR-8 ovarian, in the test with K-562 leukemia, in the test on MALME-3M melanoma, in the test on HCC-2998 colon and in the test with HT29 colon was more than 100 µM in each case. The TGI with UACC-62 melanoma was more than 100 µM.
For `CC(=O)O[C@H]1CCC2[C@@H]3CCC4Nc5c(cnn5-c5ccccc5)C[C@]4(C)C3CC[C@@]21C` (stereo partly specified), the TGI with SK-MEL-5 melanoma came out at 22 µM; with HCT-116 colon it was 27.5 µM; in the test with OVCAR-8 ovarian, 39.6 µM; in the test with K-562 leukemia, 74.3 µM; in the test with MALME-3M melanoma, 35.1 µM; in the test on HCC-2998 colon it was 25.3 µM. For the same compound, the TGI in the test on HT29 colon came out at 34.9 µM; in the test on UACC-62 melanoma, 22.6 µM.
As for `NNC(=O)CCC(=O)Nc1ccc(Cl)cc1Cl`, the TGI with SK-MEL-5 melanoma, with HCT-116 colon, in the test with OVCAR-8 ovarian, with K-562 leukemia, with MALME-3M melanoma and in the test with HCC-2998 colon was more than 100 µM each time. The TGI in the test on HT29 colon and with UACC-62 melanoma was more than 100 µM throughout.
Regarding `CC1=C(/C=C/C2=CC(=C\C(=O)O)/CC(C3=C(C)CCCC3(C)C)C2)C(C)(C)CCC1` (stereo unspecified), the TGI stood at 28 µM with SK-MEL-5 melanoma; 37 µM in the test with HCT-116 colon; 27.8 µM with OVCAR-8 ovarian; 34.1 µM with MALME-3M melanoma; 28.6 µM with HT29 colon; 23.1 µM with UACC-62 melanoma.
On to `c1ccc2c(c1)nnn2CNc1ccc(N2CCOCC2)cc1`, for which the TGI in the test with HCT-116 colon, in the test with OVCAR-8 ovarian, with K-562 leukemia, in the test on MALME-3M melanoma, in the test on HCC-2998 colon and in the test with HT29 colon was more than 100 µM in each case. The TGI in the test with UACC-62 melanoma was more than 100 µM.
For the compound `S=P(c1ccccc1)(c1ccccc1)C1(C2(P(=S)(c3ccccc3)c3ccccc3)CC2)CC1`, the TGI with SK-MEL-5 melanoma, in the test with HCT-116 colon, in the test with OVCAR-8 ovarian, in the test with K-562 leukemia, with HCC-2998 colon and in the test with HT29 colon was more than 100 µM throughout. For the same compound, the TGI with UACC-62 melanoma is more than 100 µM.
`CC(=O)NC1C(OCc2ccccc2)OC(COC(=O)CCCCCNc2ccc([N+](=O)[O-])c3[nH]c4ccc(O)cc4c(=O)c23)C(O)C1OC(C)C(=O)N[C@@H](C)C(=O)N[C@H](CCC(=O)OCc1ccccc1)C(N)=O` (stereo partly specified): the TGI was more than 20 µM in the test on SK-MEL-5 melanoma; 1.34 µM in the test on HCT-116 colon; 10.8 µM with OVCAR-8 ovarian; more than 100 µM in the test on K-562 leukemia; 2.87 µM in the test with MALME-3M melanoma; 10.9 µM with HCC-2998 colon. Also, the TGI in the test with HT29 colon was 3.09 µM; in the test on UACC-62 melanoma, 4.27 µM.
As to `COc1cc2ccc(/C(C)=N/OC(C)=O)cc2cc1OC`, the TGI in the test on HCT-116 colon, with OVCAR-8 ovarian, in the test on K-562 leukemia, in the test on MALME-3M melanoma, in the test with HT29 colon and in the test on UACC-62 melanoma was more than 100 µM each time.
As to `CC1=C2C(=O)C(C)(C)C=C2C(=O)[C@](C)(O)C12CC2`, the TGI is more than 0.612 µM with SK-MEL-5 melanoma; more than 1 µM with HCT-116 colon; more than 1 µM with OVCAR-8 ovarian; more than 1 µM with K-562 leukemia; more than 0.946 µM in the test with MALME-3M melanoma; more than 1 µM in the test with HCC-2998 colon. Also, the TGI with HT29 colon and with UACC-62 melanoma was more than 1 µM in each case.
With `CCOC(=O)/C(C#N)=C\C=C1/C=CNC2=NCCN21`, the TGI with SK-MEL-5 melanoma, with HCT-116 colon, with OVCAR-8 ovarian, with K-562 leukemia, with MALME-3M melanoma and with HCC-2998 colon was more than 100 µM each time. Besides, the TGI in the test with HT29 colon and with UACC-62 melanoma was more than 100 µM in each case.
`Cc1ccc(C(=O)CCC2C(=O)CC(C)(C)CC2=O)cc1`: the TGI in the test with SK-MEL-5 melanoma, with MCF7 breast, with HCT-116 colon, in the test with OVCAR-8 ovarian, with HCC-2998 colon and in the test on HT29 colon was more than 100 µM in each case. The same compound yielded a TGI with UACC-62 melanoma of more than 100 µM.
For the compound `COc1cc([C@@H]2c3cc4c(cc3[C@@H](NCc3ccc(C#N)cc3)C3COC(=O)[C@@H]32)OCO4)cc(OC)c1O` (stereo partly specified), the TGI with SK-MEL-5 melanoma was determined as 8.37 µM; with HCT-116 colon, 11.8 µM; with OVCAR-8 ovarian, 3.01 µM; in the test on K-562 leukemia, 15.9 µM; with MALME-3M melanoma it was 4.9 µM; with HCC-2998 colon, 3.69 µM. Moreover, the TGI turned out to be 3.15 µM in the test on HT29 colon and 2.75 µM in the test on UACC-62 melanoma.
For `CCN(CC)C(=O)CNC(=O)OC(C)(C)C`, the TGI in the test on SK-MEL-5 melanoma, in the test with HCT-116 colon, with OVCAR-8 ovarian, with K-562 leukemia, in the test on MALME-3M melanoma and in the test with HCC-2998 colon was more than 100 µM throughout. Besides, the TGI in the test on HT29 colon and with UACC-62 melanoma was more than 100 µM each time.
With `CCCCCCCC(=O)OCC1OC(n2cc(F)c(=O)[nH]c2=O)C(NC(=O)OCc2ccccc2)C(OC(=O)CCCCCCC)C1O` (stereo unspecified), the TGI in the test with SK-MEL-5 melanoma is 11.1 µM; in the test on HCT-116 colon, more than 100 µM; in the test on OVCAR-8 ovarian it was more than 100 µM; in the test on K-562 leukemia it was 61.8 µM; in the test on MALME-3M melanoma, 44.2 µM; with HCC-2998 colon it was more than 100 µM. For the same compound, the TGI is more than 100 µM in the test with HT29 colon and 45.7 µM with UACC-62 melanoma.
As to `CC(Oc1ccc(OCC2CCCCC2)cc1)C(=O)O` (stereo unspecified), the TGI in the test with SK-MEL-5 melanoma, in the test on HCT-116 colon, with OVCAR-8 ovarian, with K-562 leukemia, in the test on MALME-3M melanoma and in the test on HT29 colon was more than 100 µM in each case. Also, the TGI in the test with UACC-62 melanoma was more than 100 µM.
In the case of `CCCC1C(=O)C(CC)Cc2c(OC)ccc(OC)c21` (stereo unspecified), the TGI with SK-MEL-5 melanoma, in the test on OVCAR-8 ovarian, in the test on K-562 leukemia, in the test with MALME-3M melanoma, with HCC-2998 colon and with HT29 colon was more than 100 µM in each case. Also, in the test on UACC-62 melanoma, the TGI was more than 100 µM.
Take `CC([C@H]1CCC2C3CCC4CC5(CC[C@]4(C)C3CC[C@@]21C)c1ccccc1C(=O)N5C)N(C)C` (stereo partly specified): the TGI in the test with SK-MEL-5 melanoma is 42.9 µM; in the test with HCT-116 colon, more than 100 µM; in the test on OVCAR-8 ovarian it was more than 100 µM; in the test on K-562 leukemia, 92.2 µM; in the test with MALME-3M melanoma it was 42.5 µM; in the test with HCC-2998 colon, more than 100 µM. Besides, the TGI with HT29 colon was 68.2 µM; in the test on UACC-62 melanoma, 73 µM.
